Assays:
[1] = test system: TLR4, COX-2, NLRP3, cPLA2 levels in brains of LPS-treated mice; assay: Western blot of brains of LPS-treated mice (ex vivo); assay type: in vivo; conditions: 94, 95: 10 mg/kg i.p.; rivastigmine 1 mg/kg i.p.; vs LPS-treated control
Procedure: After the completion of cognitive assays carried out in the LPS model, the mice were sacrificed, and their brains were collected and stored for further analysis. In the ex vivo part of the study, murine brains were homogenized using T-PER mammalian protein extraction reagent (Thermo Fisher Scientific, Waltham, MA, USA) with protease (Merck Millipore, Burlington, MA, USA) and phosphatase inhibitors (Cayman Chemical, Ann Arbor, MI, USA). The total protein concentrations were determined using the Bradford reaction. Forty μg of the total proteins were solubilized in Laemmli buffer with 2% 2-mercaptoethanol and were subject to 10% SDS-polyacrylamide gel electrophoresis. The anticyclooxygenase 2 (COX-2, diluted 1:1000), antitoll-like receptor 4 (TLR4, diluted 1:1000), anticytosolic phospholipase A2 (cPLA2, 1:1000), and anti-inflammasome (NLPR3, diluted 1:500) were used (Thermo Fisher Scientific, Waltham, MA, USA). The endogenous control was β-actin (1:1000) (Thermo Fisher Scientific, Waltham, MA, USA). The secondary antibody was antirabbit IgG (HRP) diluted 1:2000 (Thermo Fisher Scientific, Waltham, MA, USA). Proteins were detected using the Clarity Western ECL Luminol Substrate (Bio-Rad, Hercules, CA, USA). Chemi Doc Camera with Image Lab 6.1 software (Bio-Rad) was used to quantify the integrated optical density of the bands. The results were normalized to the data obtained for β-actin after stripping the PVDF membrane using Restore Western Blot Stripping Buffer (Thermo Fisher Scientific, Waltham, MA, USA) and expressed as relative to the control. This thorough process ensures the validity and reliability of the results.

[2] = test system: ABL1(E255K)-phosphorylated
[3] = test system: mice (motor coordination); assay: Rotarod test; conditions: 10 mg/kg i.p., mice
Procedure: For behavioral tests, the mice were selected randomly; each group consisted of 7–10 mice.
In the rotarod, locomotor activity, and MWM tests, only one dose effective in the scopolamine model of amnesia was evaluated.
Three days before the rotarod test, the mice were trained on the rotarod apparatus (Rotarod apparatus, May Commat RR0711, Turkey; rod diameter: 2 cm) that was rotated at a fixed speed of 18 rpm. In each training session, the mice were placed on the rotating rod for 3 min with an unlimited number of trials. The proper experiment was performed 24 h after the last training trial. […] Motor impairments in mice were defined as the inability to remain on the rotarod apparatus for 1 min. The results are expressed as the mean time spent on the rotarod.

[4] = test system: scopolamine-induced cognitive deficits in mice; assay: Passive avoidance task, scopolamine-induced amnesia; assay type: in vivo; conditions: for efficacy in PA task: 5 mg/kg i.p., scopolamine model; for step-through latency, retention trial (PA task): 10 mg/kg i.p., vs scopolamine-treated control mice
Text: In the scopolamine model, the PA and NOR tasks were used for dose selection for further testing.
The mice had unlimited access to food and water prior to the experiment. Specified conditions for the maintenance of mice were ensured throughout the experiment, including tree bedding (Transwior, Poland) and cage enrichment (tunnels, nesting material, wooden igloos, etc.). For behavioral tests, the mice were selected randomly; each group consisted of 7–10 mice.
Scopolamine hydrobromide (Sigma-Aldrich, Poland) at the dose of 1 mg/kg was used to induce learning and memory deficits. For the in vivo tests, scopolamine was prepared in distilled water (Polfa Kutno, Poland) and was administered subcutaneously (s.c.) 30 min before behavioral tests during the acquisition (training) trial of PA and NOR tasks. […] They were administered intraperitoneally (i.p.) 60 min before the acquisition trial of the PA, NOR, and MWM tasks.
The PA apparatus (Panlab Harvard Apparatus, Spain) consists of a large white-colored illuminated compartment (26 cm × 26 cm × 34 cm) and a small black-colored compartment (13 cm × 7.5 cm × 7.5 cm), which are separated from each other by a guillotine gate (5 cm × 5 cm). The PA task is divided into two trials (i.e., the acquisition trial and the retention trial), each conducted 24 h apart. On the first day, during the acquisition trial (a conditioning phase), the test compounds (94 and 95, neflamapimod and vehicle) were injected. Also, before the acquisition trial, scopolamine or LPS was administered at selected time points. Then, each mouse was placed into the white compartment, and a 30 s habituation period began (guillotine gate is closed). After that, the guillotine gate was opened, and the mice were tested during the 180 s testing period. As soon as the mouse entered the black compartment of the PA device, the guillotine gate was closed and an electrical shock (intensity: 0.2 mA, duration: 2 s) was automatically applied through the grid floor. For each mouse, the latency between the opening of the guillotine gate and the mouse’s entering the black compartment was measured. On the next day, during the retention (drug-off) trial, the mice were placed again into the white compartment for a 30 s habituation period, and the latency to enter the black compartment was measured for each mouse.

in vitro = conditions: PAMPA, pH 7.4
HepG2 cells = assay: MTS metabolic activity (cytotoxicity); assay type: cell-based, human; conditions: HepG2, MTS assay, 24 h, concentrations of 5 μM or less
Procedure: (§1) The human hepatocellular carcinoma HepG2 and human neuroblastoma SH-SY5Y cell lines were purchased from American Type Culture Collection (Manassas, VA, USA). The murine microglia BV2 cells were a generous gift from Dr. Biljana Božić Nedeljković (University of Belgrade, Belgrade, Serbia). Cells were cultured in Advanced Dulbecco’s modified Eagle’s medium (Gibco, Thermo Fisher Scientific, Waltham, MA, USA) supplemented with 10% fetal bovine serum (FBS, Gibco), 2 mM L-glutamine, 50 U/mL penicillin and 50 μg/mL streptomycin (Sigma, St. Louis, MO, USA) in a humidified atmosphere of 95% air and 5% CO2 at 37 °C, and grown to 80% confluence. Prior to cell treatment, complete medium was replaced with serum-free medium. Compounds 94 and 95 were prepared as a stock solution of 30 mM in DMSO and were used at concentrations of 1–100 μM.
(§2) BV2 cells (5 × 10^3/well) and HepG2 and SH-SY5Y cells (1 × 10^4/well) were seeded in 96-well plates and assessed by MTS ([3-(4,5-dimethylthiazol-2-yl)-5-(3-carboxymethoxyphenyl)-2-(4-sulfophenyl)-2H tetrazolium, inner salt) assay for their response to compounds 94 and 95. Cells were treated with increasing concentrations of compounds (1–100 μM) in serum-free medium, and metabolic activity was assessed after 24 h using the CellTiter 96 Aqueous One Solution Cell Proliferation Assay (Promega, Madison, WI, USA), in accordance with the manufacturer’s instructions. Absorbance was measured with an automatic microplate reader (Tecan Safire^2, Switzerland) at a wavelength of 492 nm. Results are presented as a percentage of the control (DMSO).

SH-SY5Y cells = assay: MTS metabolic activity (cytotoxicity); assay type: cell-based, human; conditions: MTS assay, 24 h, concentrations of 5 μM or less
Procedure: as §1, §2

[5] = test system: JAK2(JH1domain-catalytic)

With CN(C)CCNC(=O)c1cc2c(cnn2CC2CCCCC2)cc1Cc1ccc(F)cc1F [Compound 95, 1-(Cyclohexylmethyl)-5-(2,4-difluorobenzyl)-N-(2-(dimethylamino)ethyl)-1H-indazole-6-carboxamide] the “brain cPLA2 expression” value [1] was “no difference”, the “brain levels of TLR4, COX-2, and NLRP3” value [1] was “significantly lower levels” and the RA @ 1000nM (CSNK1G2) was 100%. The RA @ 10000nM (CSNK1G2) was 98%, the RA @ 1000nM (DCAMKL1) was 100% and the RA @ 10000nM (DCAMKL1) was 100%. The RA @ 1000nM (CDK3) was 100%, the RA @ 10000nM (CDK3) was 100% and the RA @ 1000nM (FAK) was 92%. For the same molecule, the RA @ 10000nM (FAK) was 94%, the RA @ 1000nM (SRPK3) was 92% and the RA @ 10000nM (SRPK3) was 99%. For the same molecule, the RA @ 1000nM [2] was 96%, the RA @ 10000nM [2] was 93% and the RA @ 1000nM (IKKβ) was 93%. The RA @ 10000nM (IKKβ) was 80%, the RA @ 1000nM (p38α) was 6.7% and the RA @ 10000nM (p38α) was 0.1%. The RA @ 1000nM (MAPKAPK5) was 100%, the RA @ 10000nM (MAPKAPK5) was 100% and the RA @ 1000nM (PLK4) was 100%. The RA @ 10000nM (PLK4) was 100%, the RA @ 1000nM (ABL1-nonphosphorylated) was 90% and the RA @ 10000nM (ABL1-nonphosphorylated) was 90%. For the same molecule, the “motor adverse effects (rotarod test)” value [3] was “no motor adverse effects”, the “efficacy in PA task” value [4] was “not statistically significantly effective” and the “step-through latency, retention trial (PA task)” value [4] was “statistically significant prolonged step-through latency”. For the same molecule, the RA @ 1000nM (PCTK1) was 87%, the RA @ 10000nM (PCTK1) was 79% and the Papp (in vitro) was 13.2 ×10⁻⁶ cm/s. The RA @ 1000nM (DYRK1B) was 95%, the RA @ 10000nM (DYRK1B) was 100% and the RA @ 1000nM (EPHA2) was 100%. The RA @ 10000nM (EPHA2) was 100%, the RA @ 1000nM (VEGFR2) was 100% and the RA @ 10000nM (VEGFR2) was 100%. The cell viability (HepG2 cells) was “did not affect cell viability”, the cell viability (SH-SY5Y cells) was “did not affect cell viability” and the RA @ 1000nM [5] was 100%. For the same molecule, the RA @ 10000nM [5] was 100%, the RA @ 1000nM (KIT(D816V)) was 96% and the RA @ 10000nM (KIT(D816V)) was 94%. The RA @ 1000nM (NLK) was 100%, the RA @ 10000nM (NLK) was 100% and the RA @ 1000nM (MLK1) was 100%. For the same molecule, the RA @ 10000nM (MLK1) was 90%, the RA @ 1000nM (JNK1) was 100% and the RA @ 10000nM (JNK1) was 27%. For the same molecule, the RA @ 1000nM (ERK 2) was 100%, the RA @ 10000nM (ERK 2) was 100% and the RA @ 1000nM (KIT(V559D,T670I)) was 47%. The RA @ 10000nM (KIT(V559D,T670I)) was 94%.
For CC(C)Cn1ncc2cc(Cc3ccc(F)cc3F)c(C(=O)NCCN(C)C)cc21 [Compound 94, 5-(2,4-Difluorobenzyl)-N-(2-(dimethylamino)ethyl)-1-isobutyl-1H-indazole-6-carboxamide], the “brain cPLA2 expression” value [1] was “no difference”, the “brain levels of TLR4, COX-2, and NLRP3” value [1] was “significantly lower levels” and the RA @ 1000nM (CSNK1G2) was 96%. It also gave an RA @ 10000nM (CSNK1G2) of 93%, an RA @ 1000nM (DCAMKL1) of 100% and an RA @ 10000nM (DCAMKL1) of 100%. The RA @ 1000nM (CDK3) was 100%, the RA @ 10000nM (CDK3) was 1.3% and the RA @ 1000nM (FAK) was 96%. It also gave an RA @ 10000nM (FAK) of 89%, an RA @ 1000nM (SRPK3) of 77% and an RA @ 10000nM (SRPK3) of 100%. For the same molecule, the RA @ 1000nM [2] was 96%, the RA @ 10000nM [2] was 55% and the RA @ 1000nM (IKKβ) was 89%. For the same molecule, the RA @ 10000nM (IKKβ) was 89%, the RA @ 1000nM (p38α) was 2.3% and the RA @ 10000nM (p38α) was 0.4%. It also gave an RA @ 1000nM (MAPKAPK5) of 100%, an RA @ 10000nM (MAPKAPK5) of 100% and an RA @ 1000nM (PLK4) of 100%. It also gave an RA @ 10000nM (PLK4) of 100%, an RA @ 1000nM (ABL1-nonphosphorylated) of 85% and an RA @ 10000nM (ABL1-nonphosphorylated) of 97%. The “motor adverse effects (rotarod test)” value [3] was “no motor adverse effects”, the “efficacy in PA task” value [4] was “not statistically significantly effective” and the “step-through latency, retention trial (PA task)” value [4] was “statistically significant prolonged step-through latency”. For the same molecule, the RA @ 1000nM (PCTK1) was 96%, the RA @ 10000nM (PCTK1) was 92% and the Papp (in vitro) was 10.4 ×10⁻⁶ cm/s. The RA @ 1000nM (DYRK1B) was 100%, the RA @ 10000nM (DYRK1B) was 85% and the RA @ 1000nM (EPHA2) was 97%. For the same molecule, the RA @ 10000nM (EPHA2) was 100%, the RA @ 1000nM (VEGFR2) was 100% and the RA @ 10000nM (VEGFR2) was 100%. The cell viability (HepG2 cells) was “did not affect cell viability”, the cell viability (SH-SY5Y cells) was “did not affect cell viability” and the RA @ 1000nM [5] was 98%. For the same molecule, the RA @ 10000nM [5] was 100%, the RA @ 1000nM (KIT(D816V)) was 94% and the RA @ 10000nM (KIT(D816V)) was 100%. For the same molecule, the RA @ 1000nM (NLK) was 100%, the RA @ 10000nM (NLK) was 98% and the RA @ 1000nM (MLK1) was 100%. It also gave an RA @ 10000nM (MLK1) of 100%, an RA @ 1000nM (JNK1) of 77% and an RA @ 10000nM (JNK1) of 41%. It also gave an RA @ 1000nM (ERK 2) of 100%, an RA @ 10000nM (ERK 2) of 98% and an RA @ 1000nM (KIT(V559D,T670I)) of 100%. It also gave an RA @ 10000nM (KIT(V559D,T670I)) of 100%.

Source: paper PMC12406203 (Journal of Medicinal Chemistry, 2025)
